Measured values taken from US10435405B2, “Pyrazolopyridine compounds and uses thereof” (Incyte Corporation, priority 2016, dated 2019).

Molecular target: HPK1 (Homo sapiens (Human), UniProt Q92918)
Test: HPK1 Kinase Binding Assay
Procedure, shortened: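 Active HPK1 (added as 4 nM solution) was combined with compound (3-fold, 11-point series) and tracer 222 (18 nM) plus Eu-anti-GST antibody (4 nM) in 50 mM HEPES pH 7.5 with MgCl2 and DTT. After 1 h at 25 °C plates were read. Ki values were derived.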

Sequence of HPK1 (Q92918 1-346): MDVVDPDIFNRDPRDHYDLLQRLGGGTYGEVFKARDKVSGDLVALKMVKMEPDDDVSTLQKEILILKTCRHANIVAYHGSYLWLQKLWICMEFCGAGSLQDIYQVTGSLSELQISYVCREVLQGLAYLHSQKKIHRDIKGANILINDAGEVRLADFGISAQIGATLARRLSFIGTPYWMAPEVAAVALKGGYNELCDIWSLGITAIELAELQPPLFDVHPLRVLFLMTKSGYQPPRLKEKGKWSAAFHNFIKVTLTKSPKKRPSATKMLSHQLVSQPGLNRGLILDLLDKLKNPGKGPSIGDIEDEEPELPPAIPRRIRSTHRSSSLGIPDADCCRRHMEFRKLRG

Ki	Compound
≤ 100 nM	CN1CCN(c2ccc(-c3n[nH]c4cnc(-c5c(F)cccc5CN)cc34)cc2)CC1 [Example 195, (3-Fluoro-2-(3-(4-(4-methylpiperazin-1-yl)phenyl)-1H-pyrazolo[3,4-c]pyridin-5-yl)phenyl)methanamine]
≤ 100 nM	Cc1cccc(F)c1-c1cc2c(NC(=O)c3ccc(N4CCN(C)CC4)cc3NCc3ccnn3C)n[nH]c2cn1 [Example 159, N-(5-(2-Fluoro-6-methylphenyl)-1H-pyrazolo[3,4-c]pyridin-3-yl)-2-((1-methyl-1H-pyrazol-5-yl)methylamino)-4-(4-methylpiperazin-1-yl)benzamide]
≤ 100 nM	CCNCc1ccc(F)c(-c2cc3c(-c4cnn(C)c4)n[nH]c3cn2)c1C [Example 236, N-(4-Fluoro-2-methyl-3-(3-(1-methyl-1H-pyrazol-4-yl)-1H-pyrazolo[3,4-c]pyridin-5-yl)benzyl)ethanamine]
≤ 100 nM	CNCc1cc(F)c(-c2cc3c(-c4cncc(N5CCN(C)CC5)c4)n[nH]c3cn2)c(F)c1 [Example 219, 1-(3,5-Difluoro-4-(3-(5-(4-methylpiperazin-1-yl)pyridin-3-yl)-1H-pyrazolo[3,4-c]pyridin-5-yl)phenyl)-N-methylmethanamine]
≤ 100 nM	CNCc1cc(C)c(-c2cc3c(-c4ccc(C(=O)NC)cc4)n[nH]c3cn2)c(F)c1 [Example 169, 4-(5-(2-Fluoro-6-methyl-4-((methylamino)methyl)phenyl)-1H-pyrazolo[3,4-c]pyridin-3-yl)-N-methylbenzamide]
≤ 100 nM	CN1CCN(c2ccc(C(=O)Nc3n[nH]c4cnc(-c5c(F)cccc5C(F)(F)F)cc34)cc2)CC1 [Example 153, N-(5-(2-Fluoro-6-(trifluoromethyl)phenyl)-1H-pyrazolo[3,4-c]pyridin-3-yl)-4-(4-methylpiperazin-1-yl)benzamide]
≤ 100 nM	Cc1cc(C2COCCN2)cc(F)c1-c1cc2c(-c3cnn(C)c3)n[nH]c2cn1 (stereo not shown) [Example 234, 3-(3-Fluoro-5-methyl-4-(3-(1-methyl-1H-pyrazol-4-yl)-1H-pyrazolo[3,4-c]pyridin-5-yl)phenyl)morpholine]
≤ 100 nM	CNCc1cc(F)c(-c2cc3c(NC(=O)c4cccc(N5CCN(C)CC5)c4)n[nH]c3cn2)c(F)c1 [Example 145, N-(5-(2,6-Difluoro-4-((methylamino)methyl)phenyl)-1H-pyrazolo[3,4-c]pyridin-3-yl)-3-(4-methylpiperazin-1-yl)benzamide]
≤ 100 nM	CNCc1ccc(F)c(-c2cc3c(-c4cnn(C)c4)n[nH]c3cn2)c1C(F)(F)F [Example 225, 1-(4-Fluoro-3-(3-(1-methyl-1H-pyrazol-4-yl)-1H-pyrazolo[3,4-c]pyridin-5-yl)-2-(trifluoromethyl)phenyl)-N-methylmethanamine]
≤ 100 nM	Cc1cc(CNCC(F)(F)F)cc(F)c1-c1cc2c(-c3cnn(C)c3)n[nH]c2cn1 [Example 179, 2,2,2-Trifluoro-N-(3-fluoro-5-methyl-4-(3-(1-methyl-1H-pyrazol-4-yl)-1H-pyrazolo[3,4-c]pyridin-5-yl)benzyl)ethanamine]
≤ 100 nM	Cc1cc(C2CCCCN2)cc(F)c1-c1cc2c(-c3cnn(C4CC4)c3)n[nH]c2cn1 (single isomer, unassigned) [Example 232, 3-(1-Cyclopropyl-1H-pyrazol-4-yl)-5-(2-fluoro-6-methyl-4-(piperidin-2-yl)phenyl)-1H-pyrazolo[3,4-c]pyridine]

The next lines start with the molecule.

Compound	Ki
Cn1cc(-c2n[nH]c3cnc(-c4c(F)cc(CNc5ccn(C)n5)cc4F)cc23)cn1 [Example 125, N-(3,5-Difluoro-4-(3-(1-methyl-1H-pyrazol-4-yl)-1H-pyrazolo[3,4-c]pyridin-5-yl)benzyl)-1-methyl-1H-pyrazol-3-amine]	≤ 100 nM
COc1cccc(F)c1-c1cc2c(/C=C/c3ccc(Br)cc3)n[nH]c2cn1 [Example 116, 3-(4-Bromostyryl)-5-(2-fluoro-6-methoxyphenyl)-1H-pyrazolo[3,4-c]pyridine]	≤ 100 nM
COc1cccc(F)c1-c1cc2c(NC(=O)c3ccc(Br)cc3)n[nH]c2cn1 [Example 3, 4-Bromo-N-(5-(2-fluoro-6-methoxyphenyl)-1H-pyrazolo[3,4-c]pyridin-3-yl)benzamide]	≤ 100 nM
CNC(=O)c1ccc(-c2n[nH]c3cnc(-c4c(F)cccc4OC)cc23)cc1OC [Example 102, 4-(5-(2-Fluoro-6-methoxyphenyl)-1H-pyrazolo[3,4-c]pyridin-3-yl)-2-methoxy-N-methylbenzamide]	≤ 100 nM
Cc1cc(NC(=O)CN2C[C@H]3CC[C@@H]2C3)cc(F)c1-c1cc2c(-c3cnn(C)c3)n[nH]c2cn1 [Example 83, 2-((1R,4S)-2-Azabicyclo[2.2.1]heptan-2-yl)-N-(3-fluoro-5-methyl-4-(3-(1-methyl-1H-pyrazol-4-yl)-1H-pyrazolo[3,4-c]pyridin-5-yl)phenyl)acetamide]	≤ 100 nM
CNCc1ccc(-c2cc3c(-c4cnn(C)c4)n[nH]c3cn2)c(C)c1 [Example 111, N-Methyl-1-(3-methyl-4-(3-(1-methyl-1H-pyrazol-4-yl)-1H-pyrazolo[3,4-c]pyridin-5-yl)phenyl)methanamine]	≤ 100 nM
CC(C)N1CC(NCCc2cc(F)c(-c3cc4c(-c5cnn(C)c5)n[nH]c4cn3)c(F)c2)C1 [Example 99, N-(3,5-Difluoro-4-(3-(1-methyl-1H-pyrazol-4-yl)-1H-pyrazolo[3,4-c]pyridin-5-yl)phenethyl)-1-isopropylazetidin-3-amine]	≤ 100 nM
CN1CCN(c2ccc(-c3n[nH]c4cnc(-c5c(F)cc(F)cc5F)cc34)cc2)CC1 [Example 46, 3-(4-(4-Methylpiperazin-1-yl)phenyl)-5-(2,4,6-trifluorophenyl)-1H-pyrazolo[3,4-c]pyridine]	≤ 100 nM
CNCc1cc(F)c(-c2cc3c(-c4cnn(C)c4)n[nH]c3cn2)c(C(F)(F)F)c1 [Example 131, 1-(3-Fluoro-4-(3-(1-methyl-1H-pyrazol-4-yl)-1H-pyrazolo[3,4-c]pyridin-5-yl)-5-(trifluoromethyl)phenyl)-N-methylmethanamine]	≤ 100 nM
CN1CCN(c2ccc(-c3n[nH]c4cnc(-c5c(F)cccc5Cl)cc34)cc2)CC1 [Example 47, 5-(2-Chloro-6-fluorophenyl)-3-(4-(4-methylpiperazin-1-yl)phenyl)-1H-pyrazolo[3,4-c]pyridine]	≤ 100 nM
COc1cccc(F)c1-c1cc2c(NC(=O)c3ccccc3)n[nH]c2cn1 [Example 1, N-(5-(2-Fluoro-6-methoxyphenyl)-1H-pyrazolo[3,4-c]pyridin-3-yl)benzamide]	≤ 100 nM
COc1cc(NC(=O)CN2CCCC2)cc(F)c1-c1cc2c(-c3cnn(C)c3)n[nH]c2cn1 [Example 74, N-(3-Fluoro-5-methoxy-4-(3-(1-methyl-1H-pyrazol-4-yl)-1H-pyrazolo[3,4-c]pyridin-5-yl)phenyl)-2-(pyrrolidin-1-yl)acetamide]	≤ 100 nM
CC(C(=O)Nc1cc(F)c(-c2cc3c(-c4cnn(C)c4)n[nH]c3cn2)c(F)c1)N1CCCC1 (stereo not shown) [Example 70, N-(3,5-Difluoro-4-(3-(1-methyl-1H-pyrazol-4-yl)-1H-pyrazolo[3,4-c]pyridin-5-yl)phenyl)-2-(pyrrolidin-1-yl)propanamide]	≤ 100 nM
COc1cccc(F)c1-c1cc2c(NC(=O)c3ccc(F)c(F)c3)n[nH]c2cn1 [Example 12, 3,4-Difluoro-N-(5-(2-fluoro-6-methoxyphenyl)-1H-pyrazolo[3,4-c]pyridin-3-yl)benzamide]	≤ 100 nM
COc1cccc(F)c1-c1cc2c(NC(=O)c3cccc(Br)c3)n[nH]c2cn1 [Example 4, 3-Bromo-N-(5-(2-fluoro-6-methoxyphenyl)-1H-pyrazolo[3,4-c]pyridin-3-yl)benzamide]	≤ 100 nM
Cn1cc(-c2n[nH]c3cnc(-c4c(F)cc(NC(=O)CC5CCCC5)cc4F)cc23)cn1 [Example 66, 2-Cyclopentyl-N-(3,5-difluoro-4-(3-(1-methyl-1H-pyrazol-4-yl)-1H-pyrazolo[3,4-c]pyridin-5-yl)phenyl)acetamide]	≤ 100 nM
CNCc1ccc(F)c(-c2cc3c(-c4cnn(C)c4)n[nH]c3cn2)c1F [Example 127, 1-(2,4-Difluoro-3-(3-(1-methyl-1H-pyrazol-4-yl)-1H-pyrazolo[3,4-c]pyridin-5-yl)phenyl)-N-methylmethanamine]	≤ 100 nM
COc1cccc(F)c1-c1cc2c(NC(=O)c3ccc(N4CCN(C)CC4)cc3)n[nH]c2cn1 [Example 26, N-(5-(2-Fluoro-6-methoxyphenyl)-1H-pyrazolo[3,4-c]pyridin-3-yl)-4-(4-methylpiperazin-1-yl)benzamide]	≤ 100 nM
COc1cccc(F)c1-c1cc2c(NC(=O)c3ccc(N4CCN(C)C(=O)C4)cc3)n[nH]c2cn1 [Example 27, N-(5-(2-fluoro-6-methoxyphenyl)-1H-pyrazolo[3,4-c]pyridin-3-yl)-4-(4-methyl-3-oxopiperazin-1-yl)benzamide]	≤ 100 nM
COc1cccc(F)c1-c1cc2c(NC(=O)c3ccc(N4CCNC(=O)C4)cc3)n[nH]c2cn1 [Example 25, N-(5-(2-Fluoro-6-methoxyphenyl)-1H-pyrazolo[3,4-c]pyridin-3-yl)-4-(3-oxopiperazin-1-yl)benzamide]	≤ 100 nM
CCN(C)c1cccc(-c2n[nH]c3cnc(-c4c(C)cc(CNC)cc4F)cc23)n1 [Example 118, N-Ethyl-6-(5-(2-fluoro-6-methyl-4-((methylamino)methyl)phenyl)-1H-pyrazolo[3,4-c]pyridin-3-yl)-N-methylpyridin-2-amine]	≤ 100 nM
Cc1cccc(C)c1-c1cc2c(-c3ccc(N4CCN(C)CC4)cc3)n[nH]c2cn1 [Example 45, 5-(2,6-Dimethylphenyl)-3-(4-(4-methylpiperazin-1-yl)phenyl)-1H-pyrazolo[3,4-c]pyridine]	≤ 100 nM
CNC(=O)c1ccc(-c2n[nH]c3cnc(-c4c(F)cccc4OC)cc23)cc1C [Example 103, 4-(5-(2-Fluoro-6-methoxyphenyl)-1H-pyrazolo[3,4-c]pyridin-3-yl)-N,2-dimethylbenzamide]	≤ 100 nM
